Experimental findings from patent publication US9115166B2, “Rebaudioside A derivative products and methods for making” (The Coca-Cola Company, priority 2008, dated 2015) are described below.

The nature of test [1]: Sweetness intensity of a water sample of derivative product compared with a water sample of sucrose (Example 4). The test is classed as in vivo. The settings on record: for Sweetness Intensity of Derivative Product (as compared to equivalent amount of sucrose): in water, amount of sample by weight: 1 (II) 3.6 %, 2 (IV) 1.1 %, 3 (III) 9.7 %, 4 (V) 6 %. How it is done:
The sweetness intensity of the foregoing rebaudioside A derivative products was analyzed by comparing the sweetness intensity of a water sample having a particular amount of sucrose with a second water sample having an identical amount of a rebaudioside A derivative product.

The nature of test [2]: Quality of sweetness: sensory attributes scored on a 15-point unstructured line scale. The format is in vivo. Further details: key to Stale Flavor / Metallic Flavor / Mouth Numbing / Mouthburn / Stale Aftertaste / Metallic Aftertaste / Overall Aroma / Sweet Aromatic Aroma / Stale Aroma: scores on a 15-point unstructured line scale. The following applies: for Metallic Aftertaste / Metallic Flavor / Mouth Numbing / Mouthburn / Stale Flavor / Overall Aroma / Stale Aftertaste / Stale Aroma / Sweet Aromatic Aroma / Astringency / Bitterness / Bitterness Aftertaste / Black Licorice Aftertaste / Black Licorice Flavor / Cooling / Overall Aftertaste / Overall Flavor / Sweet Aromatic Aftertaste / Sweet Aromatic Flavor / Sweetness / Sweetness Aftertaste: mean score, 15-point line scale, two replications, room temperature; for Overall Aroma / Stale Aftertaste / Stale Aroma / Sweet Aromatic Aroma: more than 50% of responses zero; for Astringency / Bitterness / Bitterness Aftertaste / Black Licorice Aftertaste / Black Licorice Flavor / Cooling / Overall Aftertaste / Overall Flavor / Sweet Aromatic Aftertaste / Sweet Aromatic Flavor / Sweetness / Sweetness Aftertaste: same superscript letter = not significantly different (95%). On the procedure: The quality of sweetness of the rebaudioside A derivative products 1 (II), 2 (IV), 3 (III), and 4 (V) also was evaluated and compared to that of rebaudioside A, rebaudioside B, rebaudioside F, and sucrose at room temperature. For each attribute, the sweeteners received a score based on a 15-point unstructured line scale. […] A multiple comparison test, Fisher's LSD 5%, aided in the comparative analysis of the scores.

Marks after values point to notes of the source that are not given here.

For `CC1=CC23CCC4C(C)(C(=O)OC5OC(CO)C(O)C(O)C5O)CCCC4(C)C2CCC1(OC1OC(CO)C(O)C(OC2OC(CO)C(O)C(O)C2O)C1OC1OC(CO)C(O)C(O)C1O)C3` [Derivative Product 2 (IV), 13-[(2-O-β-D-glucopyranosyl-3-O-β-D-glucopyranosyl-β-D-glucopyranosyl)oxy]kaur-15-en-18-oic acid β-D-glucopyranosyl ester], in test [1], the “Sweetness Intensity of Derivative Product (as compared to equivalent amount of sucrose)” value is reported as 20. Moreover, the “characteristics which were not significantly different from sucrose (number)” value in test [2] (Fisher's LSD 5%, 95% confidence level) is 8. For the same molecule, the “overall flavor and sweetness relative to sucrose” value in test [2] (in vivo) is reported as “comparable to sucrose”. Also, in test [2], the “Metallic Aftertaste” value was determined as 0.88, the “Metallic Flavor” value stood at 0.82, the “Mouth Numbing” value is listed as 0.97 and the Mouthburn is 1.45. Moreover, in test [2], the “Stale Flavor” value is 1.21, the “Overall Aroma” value was found to be 0.09, the “Stale Aftertaste” value is given as 0.74 and the “Stale Aroma” value came out at 0.06. In addition, in test [2], the “Sweet Aromatic Aroma” value amounted to 0.00, the Astringency was 2.90^ab, the Bitterness is given as 2.86^ab and the “Bitterness Aftertaste” value is 1.82^ab. For the same molecule, in test [2], the “Black Licorice Aftertaste” value is 0.00^c, the “Black Licorice Flavor” value was 0.07^d, the Cooling is recorded as 0.12^c and the “Overall Aftertaste” value was 2.35^d. In addition, in test [2], the “Overall Flavor” value was 3.58^c, the “Sweet Aromatic Aftertaste” value is recorded as 0.20^cd, the “Sweet Aromatic Flavor” value is listed as 0.19^bc and the Sweetness is given as 1.14^d. Further, in test [2], the “Sweetness Aftertaste” value is on record as 0.41^d.
Consider `C=C1C[C@@]23CC[C@H]4[C@@](C)(CCC[C@@]4(C)C(=O)OC4OC(CO)C(O)C(O)C4O)[C@@H]2CC[C@]1(OC1OC(CO)C(O)C(OC2OC(CO)C(O)C(O)C2O)C1OC1OC(CO)C(O)C(O)C1O)C3` (some centres unmarked) [Reb. A, Rebaudioside A], for which, in test [2], the “Metallic Aftertaste” value stood at 0.80, the “Metallic Flavor” value came out at 0.97, the “Mouth Numbing” value is 0.76 and the Mouthburn is given as 1.29. Besides, in test [2], the “Stale Flavor” value is on record as 0.89, the “Overall Aroma” value is recorded as 0.16, the “Stale Aftertaste” value worked out at 0.48 and the “Stale Aroma” value was determined as 0.00. Further, in test [2], the “Sweet Aromatic Aroma” value amounted to 0.14, the Astringency is on record as 3.14^ab, the Bitterness was 3.43^a and the “Bitterness Aftertaste” value is 2.21^a. Besides, in test [2], the “Black Licorice Aftertaste” value is 1.47^a, the “Black Licorice Flavor” value was 2.31^a, the Cooling was 1.10^a and the “Overall Aftertaste” value was 6.34^a. Moreover, in test [2], the “Overall Flavor” value is on record as 9.88^a, the “Sweet Aromatic Aftertaste” value was 0.50^bcd, the “Sweet Aromatic Flavor” value was 0.71^ab and the Sweetness was 9.59^a. In addition, the “Sweetness Aftertaste” value in test [2] is on record as 5.91^a.
`OC[C@H]1O[C@@](CO)(O[C@H]2O[C@H](CO)[C@@H](O)[C@H](O)[C@H]2O)[C@@H](O)[C@@H]1O` [Sucrose, sucrose, reference compound]: in test [2], the “Metallic Aftertaste” value is listed as 0.67, the “Metallic Flavor” value stood at 1.04, the “Mouth Numbing” value is given as 0.57 and the Mouthburn stood at 1.06. For the same molecule, in test [2], the “Stale Flavor” value is 0.50, the “Overall Aroma” value is 0.40, the “Stale Aftertaste” value was 0.58 and the “Stale Aroma” value is recorded as 0.11. Also, in test [2], the “Sweet Aromatic Aroma” value was 0.24, the Astringency is 3.03^ab, the Bitterness is recorded as 1.47^e and the “Bitterness Aftertaste” value is reported as 0.97^d. Besides, in test [2], the “Black Licorice Aftertaste” value was 0.26^c, the “Black Licorice Flavor” value was 0.13^d, the Cooling is listed as 0.38^bc and the “Overall Aftertaste” value was 5.05^b. In test [2], the “Overall Flavor” value was 10.73^a, the “Sweet Aromatic Aftertaste” value is 1.01^a, the “Sweet Aromatic Flavor” value is given as 1.12^a and the Sweetness is given as 10.45^a. Further, the “Sweetness Aftertaste” value in test [2] is 4.76^b.
For “rebaudioside F [Reb. F, reference compound]”, in test [2], the “Metallic Aftertaste” value was 0.88, the “Metallic Flavor” value was 1.13, the “Mouth Numbing” value is on record as 0.98 and the Mouthburn was 1.35. Moreover, in test [2], the “Stale Flavor” value came out at 1.14, the “Overall Aroma” value worked out at 0.29, the “Stale Aftertaste” value amounted to 0.81 and the “Stale Aroma” value came to 0.00. For the same molecule, in test [2], the “Sweet Aromatic Aroma” value is 0.18, the Astringency is recorded as 3.28^a, the Bitterness was 2.64^bc and the “Bitterness Aftertaste” value is 1.70^bc. Further, in test [2], the “Black Licorice Aftertaste” value is reported as 0.75^b, the “Black Licorice Flavor” value is recorded as 0.88^c, the Cooling is given as 0.57^b and the “Overall Aftertaste” value is 3.89^c. Further, in test [2], the “Overall Flavor” value is on record as 5.38^b, the “Sweet Aromatic Aftertaste” value is recorded as 0.46^bcd, the “Sweet Aromatic Flavor” value is given as 0.59^abc and the Sweetness is 4.98^b. In addition, the “Sweetness Aftertaste” value in test [2] is reported as 3.34^c.
`CC1(C(=O)OC2OC(CO)C(O)C(O)C2O)CCCC2(C)C3CCC4(OC5OC(CO)C(O)C(OC6OC(CO)C(O)C(O)C6O)C5OC5OC(CO)C(O)C(O)C5O)CC3(CCC12)CC4(C)O` [Derivative Product 1 (II), 13-[(2-O-β-D-glucopyranosyl-3-O-β-D-glucopyranosyl-β-D-glucopyranosyl)oxy]-16-hydroxy kauran-18-oic acid β-D-glucopyranosyl ester]: the “Sweetness Intensity of Derivative Product (as compared to equivalent amount of sucrose)” value in test [1] was 30. Also, the “sweetness intensity, times that of sucrose” value in test [1] (water solution vs same weight percentage of sucrose, 3.6 weight percent for 1 (II)) is reported as “at least 30 times”. Also, in test [2], the “Metallic Aftertaste” value is listed as 0.67, the “Metallic Flavor” value is given as 0.71, the “Mouth Numbing” value was determined as 0.38 and the Mouthburn turned out to be 1.11. Besides, in test [2], the “Stale Flavor” value is reported as 1.01, the “Overall Aroma” value is on record as 0.17, the “Stale Aftertaste” value amounted to 0.56 and the “Stale Aroma” value came to 0.10. Moreover, in test [2], the “Sweet Aromatic Aroma” value is given as 0.04, the Astringency was 2.38^c, the Bitterness is listed as 2.28^bcd and the “Bitterness Aftertaste” value was 1.32^cd. Further, in test [2], the “Black Licorice Aftertaste” value is recorded as 0.00^c, the “Black Licorice Flavor” value is 0.00^d, the Cooling was 0.29^bc and the “Overall Aftertaste” value is listed as 2.18^d. Moreover, in test [2], the “Overall Flavor” value is given as 3.14^c, the “Sweet Aromatic Aftertaste” value was 0.09^d, the “Sweet Aromatic Flavor” value is on record as 0.06^c and the Sweetness was 1.54^d. Moreover, in test [2], the “Sweetness Aftertaste” value was 0.70^d.
As for “rebaudioside B [Reb. B, reference compound]”, in test [2], the “Metallic Aftertaste” value is 0.47, the “Metallic Flavor” value worked out at 0.82, the “Mouth Numbing” value came out at 0.54 and the Mouthburn is 0.97. Besides, in test [2], the “Stale Flavor” value was found to be 0.92, the “Overall Aroma” value was 0.28, the “Stale Aftertaste” value is reported as 0.63 and the “Stale Aroma” value is recorded as 0.26. In test [2], the “Sweet Aromatic Aroma” value was 0.00, the Astringency is reported as 2.79^bc, the Bitterness is 1.72^de and the “Bitterness Aftertaste” value is 1.07^d. In test [2], the “Black Licorice Aftertaste” value is recorded as 0.80^b, the “Black Licorice Flavor” value was 0.89^c, the Cooling is on record as 0.57^b and the “Overall Aftertaste” value is reported as 3.54^c. For the same molecule, in test [2], the “Overall Flavor” value is 4.20^c, the “Sweet Aromatic Aftertaste” value is listed as 0.46^bcd, the “Sweet Aromatic Flavor” value is on record as 0.54^abc and the Sweetness was 3.55^c. Besides, the “Sweetness Aftertaste” value in test [2] is 3.11^c.
